What was measured:
[1] = test system: HCT-116; test: Dark toxicity in human HCT-116 cells assessed as reduction in cell viability incubated under dark for 48 hrs measured after 48 hrs by CCK8 assay; format: functional, cell-based; settings: HCT-116, 48 h
[2] = test system: A549; test: Phototoxicity in human A549 cells assessed as reduction in cell viability irradiated 10 j/cm2 for 24 hrs followed by incubated for 24 hrs by CCK8 assay; format: functional, cell-based; settings: A549, light or radiation study
[3] = test system: HCT-116; test: Phototoxicity in human HCT-116 cells assessed as reduction in cell viability irradiated 10 j/cm2 for 24 hrs followed by incubated for 24 hrs by CCK8 assay; format: functional, cell-based; settings: HCT-116, light or radiation study
[4] = test system: A549; test: Dark toxicity in human A549 cells assessed as reduction in cell viability incubated under dark for 48 hrs measured after 48 hrs by CCK8 assay; format: functional, cell-based; settings: A549, 48 h
[5] = target: Histone deacetylase 1 (Homo sapiens, UniProt Q13547); test: Inhibition of human recombinant HDAC1 using Ac-Leu-Gly-Lys(Ac)-AMC as substrate by measuring fluorescence intensity incubated for 30 mins by microplate reader assay
Histone deacetylase 1, sequence (Q13547 whole entry): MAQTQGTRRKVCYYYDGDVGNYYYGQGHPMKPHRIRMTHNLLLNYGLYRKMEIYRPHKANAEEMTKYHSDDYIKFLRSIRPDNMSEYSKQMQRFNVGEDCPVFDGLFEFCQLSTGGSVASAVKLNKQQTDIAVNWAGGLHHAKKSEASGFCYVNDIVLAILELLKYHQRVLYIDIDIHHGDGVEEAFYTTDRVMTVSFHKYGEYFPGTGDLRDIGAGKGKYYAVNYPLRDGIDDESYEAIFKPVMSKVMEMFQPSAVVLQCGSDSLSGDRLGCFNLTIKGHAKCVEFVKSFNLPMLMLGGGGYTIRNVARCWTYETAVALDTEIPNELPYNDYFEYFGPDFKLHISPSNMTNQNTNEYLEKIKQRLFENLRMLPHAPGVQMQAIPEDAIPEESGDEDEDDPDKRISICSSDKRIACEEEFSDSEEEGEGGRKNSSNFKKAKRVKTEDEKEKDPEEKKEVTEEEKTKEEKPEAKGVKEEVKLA

[6] = test system: A549; test: Induction of reactive oxygen species generation in human A549 cells assessed as mean count value at 0.05 uM incubated for 24 hrs by DCFH-DA staining based fluorescence microscopy assay; format: functional
[7] = test system: A549; test: Induction of autophagy in human A549 cells irradiated 10 j/cm2 at 0.1 uM after 24 hrs using fluorescent molecule DAPRed; format: functional
[8] = test system: A549; test: Induction of reactive oxygen species generation in human A549 cells assessed as mean count value at 0.01 uM incubated for 24 hrs by DCFH-DA staining based fluorescence microscopy assay; format: functional

Structure (SMILES)	IC50 [1]	IC50 [2]	IC50 [3]	IC50 [4]	IC50 [5]	Activity [6]	Activity [7]	Activity [8]
C=Cc1c(C)c2cc3nc(cc4[nH]c(cc5nc(cc1[nH]2)C(C)=C5CC)c(C)c4C(=O)OC)[C@@H](CCC(=O)O)[C@@H]3C	21800 nM	920 nM	1470 nM	15300 nM				
C=Cc1c(C)c2cc3nc(c(C(=O)OC)c4[nH]c(cc5nc(cc1[nH]2)C(C)=C5CC)c(C)c4C(=O)OC)[C@@H](CCC(=O)NO)[C@@H]3C	4180 nM	130 nM	11 nM	370 nM	79000 nM			
C=Cc1c(C)c2cc3nc(c(C(=O)OC)c4[nH]c(cc5nc(cc1[nH]2)C(C)=C5CC)c(C)c4C(=O)OC)[C@@H](CCC(=O)NCCCCC(=O)Nc1ccccc1N)[C@@H]3C	8630 nM	300 nM	260 nM	3510 nM	81000 nM			
C=Cc1c(C)c2cc3nc(c(C(=O)OC)c4[nH]c(cc5nc(cc1[nH]2)C(C)=C5CC)c(C)c4C(=O)OC)[C@@H](CCC(=O)NCCCC(=O)Nc1ccccc1N)[C@@H]3C	9140 nM	310 nM	330 nM	3730 nM	201000 nM			
C=Cc1c(C)c2cc3nc(c(C(=O)OC)c4[nH]c(cc5nc(cc1[nH]2)C(C)=C5CC)c(C)c4C(=O)OC)[C@@H](CCC(=O)Nc1ccc(C(=O)NO)cc1)[C@@H]3C	3490 nM	130 nM	270 nM	930 nM	11000 nM			
C=Cc1c(C)c2cc3nc(c(C(=O)OC)c4[nH]c(cc5nc(cc1[nH]2)C(C)=C5CC)c(C)c4C(=O)OC)[C@@H](CCC(=O)NCCCCC(=O)NO)[C@@H]3C	2810 nM	180 nM	108 nM	1510 nM	49000 nM			
C=Cc1c(C)c2cc3nc(c(CC(=O)N[C@@H](CC(=O)O)C(=O)O)c4[nH]c(cc5nc(cc1[nH]2)C(C)=C5CC)c(C)c4C(=O)O)[C@@H](CCC(=O)O)[C@@H]3C [TALAPORFIN]	50700 nM	6210 nM	2950 nM	181000 nM		153.14	19.08%	125.93
C=Cc1c(C)c2cc3nc(c(C(=O)OC)c4[nH]c(cc5nc(cc1[nH]2)C(C)=C5CC)c(C)c4C(=O)OC)[C@@H](CCC(=O)Nc1ccccc1N)[C@@H]3C	4140 nM	180 nM	23 nM	590 nM	224000 nM			
C=Cc1c(C)c2cc3nc(c(C(=O)OC)c4[nH]c(cc5nc(cc1[nH]2)C(C)=C5CC)c(C)c4C(=O)OC)[C@@H](CCC(=O)NCCCCCC(=O)Nc1ccccc1N)[C@@H]3C	9280 nM	230 nM	210 nM	2670 nM	90000 nM			
C=Cc1c(C)c2cc3nc(c(C(=O)OC)c4[nH]c(cc5nc(cc1[nH]2)C(C)=C5CC)c(C)c4C(=O)OC)[C@@H](CCC(=O)NCCCCCC(=O)NO)[C@@H]3C	6890 nM	120 nM	39 nM	1360 nM	88000 nM			
C=Cc1c(C)c2cc3nc(c(C(=O)OC)c4[nH]c(cc5nc(cc1[nH]2)C(C)=C5CC)c(C)c4C(=O)OC)[C@@H](CCC(=O)O)[C@@H]3C	31300 nM	300 nM	520 nM	15700 nM				
C=Cc1c(C)c2cc3nc(cc4[nH]c(cc5nc(cc1[nH]2)C(C)=C5CC)c(C)c4C(=O)OC)[C@@H](CCC(=O)Nc1ccc(C(=O)NO)cc1)[C@@H]3C	4600 nM	900 nM	31 nM	9240 nM	28000 nM			
C=Cc1c(C)c2cc3nc(c(C(=O)OC)c4[nH]c(cc5nc(cc1[nH]2)C(C)=C5CC)c(C)c4C(=O)OC)[C@@H](CCC(=O)NCCCC(=O)NO)[C@@H]3C	5540 nM	220 nM	220 nM	1840 nM	40000 nM			

Reference: ChEMBL document CHEMBL4814003, “Novel dual-mode antitumor chlorin-based derivatives as potent photosensitizers and histone deacetylase inhibitors for photodynamic therapy and chemotherapy” (Eur J Med Chem, 2021)
